# Laboratory results from patent US7842683B2, “Neurotherapeutic compositions and method” (Revaax Pharmaceuticals, LLC, priority 1999, dated 2010).
# Values joined by “and” are separate entries in the source; they are usually repeats but may differ in a detail not shown here. Equal values may be shown once. Read-outs that look alike come from different tables or passages of the source.
# Tests used:
# [1] = system: gram negative beta-lactamase enzymes; details: cited from earlier work
# [2] = system: Male Wistar rats; test: Elevated plus-maze (anxiolytic activity); format: in vivo, rat
# [3] = cited from earlier work
# [4] = system: male hamsters; test: Novelty test, stress-induced release of cortisol; format: in vivo; details: 10 μg/kg IP
# Method: The simple procedure of placing an adult male hamster into a novel environment for 5 min causes a significant, predictable increase in blood levels of cortisol (Weinberg and Wong 1986). This novelty test was used to assess the effects of CLAV on stress-induced release of cortisol. Two groups of male hamsters were treated IP with either CLAV (10 μg/kg, n=6), or saline vehicle (n=4). A third group (n=4) received no treatment or isolation stress and served as a control for basal levels of cortisol. Sixty min after treatment animals were taken from their home cage and placed into a novel cage for 5 min. Afterwards animals were sacrificed by decapitation and trunk blood collected for radioimmunoassay of cortisol. All animals were tested under reverse light:dark conditions four hrs into the dark cycle. Data were compared with a one-way ANOVA followed by Fisher PLSD post hoc tests.
# [5] = system: male hamsters; test: Sexual activity toward a receptive female; format: in vivo, golden hamsters; details: 50 μg/kg, 90 min
# Method: Six animals were tested over a five min observation period for sexual activity following treatment with saline vehicle or 50 μg/kg Mox (FIG. 6). The study was counter balanced with each animal receiving each treatment. Ninety min after injection, animals were scored for latency to mount and number of intromissions, i.e., bouts of copulation, toward a receptive female placed into their home cage. Female golden hamsters were ovariectomized under general anesthesia. Following recovery animals were treated with a single SC injection of […] estradiol benzoate for three consecutive days to induce sexual receptivity. On the day of testing the estrogen primed females were introduced into the home cage of the experimental males. […] Lordosis, is a stereotyped posture characterized by intense, sustained vertebral dorsiflexion.
# [6] = system: male hamsters; test: Radial arm maze (spatial memory); format: in vivo; details: 50 μg/kg
# From the text: The radial arm maze is one of the most commonly used methods for testing spatial learning and memory in rodents. Developed by Olton and co-workers (1976), it provides the simultaneous choice of several alternative paths for the test subject. Animals must learn which locations provide food (place learning) using visuospatial cues. Experimental Trials: The experimental trials consist of three phases (described below). The arms of the maze are numbered clock-wise from one to seven with arm number one being the arm furthest to the right side of the maze. All trials are […]. When not being tested, all hamsters have unlimited access to water. […] Trials within all the phases are conducted on successive days. Phase One: Phase One consists of five 15 min trials. Prior to the beginning of each of the five trials in Phase One, four sunflower seeds are placed at the ends of arms one, two, and three. Arms four, five, six, and seven remain empty. Phase Two: Phase Two of the experimental trials are identical to Phase One except that the seeds are placed in arms two, four, and seven. […] Coding of Behaviors: An arm entry was scored if all four paws of a hamster crossed an arm threshold. A full arm entry into an arm is scored if a hamster's snout touches the top of the block at the end of an arm or if their snout passes the block. […] In addition, the number of seeds pouched by the hamsters was scored. […]
# [7] = system: vasopressin V1A receptor; test: Membrane binding assay, competition for I125 HO-LVA; details: 1 μM, hamster liver membrane preparation
# From the text: (§1) Vasopressin and serotonin are both critical neurotransmitters in the control of offensive aggression in male hamsters (Ferris et al., 1998). These two neurotransmitters also are implicated in the control of human aggression (Coccaro et al., 1998). Vasopressin facilitates aggressive behavior while serotonin inhibits aggression, in part, by inhibiting the activity of the vasopressin system. Blockade of vasopressin V1A receptors and stimulation of serotonin 5HT1A receptors in the anterior hypothalamus blocks offensive aggression (Ferris et al., 1999). […] To test this notion Mox was tested in a membrane binding assay for competition for the V1A receptor (Ferris et al., 1994) and in a receptor autoradiography assay for competition for the 5HT1A receptors (Ferris et al., 1999).
# [8] = system: hamsters; test: Motor activity in an open field (hamsters); format: in vivo, Syrian golden hamsters (Mesocricetus auratus); details: 50 μg/kg, 90 min after injection
# Method: Six animals were tested for general motor activity in an “open field” following treatment with saline vehicle or 50 μg/kg Mox (FIG. 5). The study was counter balanced with each animal receiving each treatment. Ninety minutes after injection a single animal was placed into a large clean Plexiglas cage (48×32×40 cm) devoid of any bedding. This open field was delineated into equal quadrants by tape on the underside of the cage. Animals were scored for motor activity by counting the number of quadrants traversed in 1 min.
# [9] = system: serotonin 5HT1A receptors; test: Receptor autoradiography, competition for I125 DPAT; format: binding; details: tissue sections of the hamster brain
# From the text: as §1
# [10] = system: Corticotropin Releasing Factor receptor; test: NOVASCREEN CRF binding assay; details: 100 nM
# Method: [table] Corticotropin releasing hormone (CRH or CRF as shown on the following page) is a critical neurohormone in the regulation of stress. Since Mox suppresses impulsivity, aggression, and anxiety while enhancing learning and memory it may be acting to reduce stress. For this reason, Mox was tested by NOVASCREEN in a CRF binding assay.
# [11] = cited from earlier work; remark: listed apart in the source
# [12] = system: Amino Acid, Adrenergic, Serotonergic, and Dopaminergic Receptors and Their Transporters; test: NOVASCREEN screen of thirty-six receptor and transporter binding assays; details: 100 nM, duplicate samples
# From the text: Moxalactam was screened in thirty-six different binding assays by NOVASCREEN, a contract research organization based in Hanover, Md. […] These assays were chosen because their respective receptor or transporter may play a role in the pathophysiology of mental illness. […] [table] [table] [table] [table] [table]
smiles,measurement,setting,value
"O=C(O)[C@H]1/C(=C/CO)O[C@@H]2CC(=O)N21 [CLAV, Clavulanic acid]",binding affinity for the beta-lactamases,[1],very high
same,concentration range inhibiting gram negative beta-lactamase enzymes,[1],15 to 34 nM
same,"effective dose, times less than CDP",[2]; CLAV 100 ng/kg vs CDP 10 mg/kg,"100,000 times"
same,open arm entries,"[2]; daily IP for seven days: CLAV 100 ng/kg, CDP 10 mg/kg",no significant difference
same,CSF/plasma ratio,[3]; in vivo,around 0.25
same,elimination half-life,[3]; in vivo,under two
same,plasma half-life,[3]; in vivo,over 2 hrs
same,volume of distribution,[3]; in vivo,around 15 liters
same,bioavailability,[3]; oral,64 to 75%
same,effect on the release of cortisol in response to mild stress,[4],no ostensible effect
same,"blood level of cortisol vs untreated, non-stressed control","[4]; sixty min, 5 min novel cage",more than twice
"CO[C@@]1(NC(=O)C(C(=O)O)c2ccc(O)cc2)C(=O)N2C(C(=O)O)=C(CSc3nnnn3C)CO[C@@H]21 (stereo partly drawn) [Mox, 7-β-[2-carboxy-2-(4-hydroxyphenyl)acetamido]-7α-methoxy-3-[[(1-methyl-1H-tetrazol-5-yl)thio]methyl]-1-oxa-1-dethia-3-cephem-4-carboxylic acid]",intromission rate,[5],trend toward a decreased intromission rate
same,time to mount,[5]; five min observation,significantly increased
same,number of seeds discovered after reversing the orientation of the maze,[6],significantly increased
same,displacement of I125 HO-LVA binding,[7],did not significantly displace
same,open field activity (quadrants traversed in 1 min),[8],no significant difference
same,reduction of specific binding of I125 DPAT,[9],ineffective
same,effect in the CRF binding assay,[10],no effect
same,accumulation with multiple injections,[11]; 8-12 hr intervals,no accumulation
same,elimination half-life,[11]; IM injection,2.3 h
same,time of peak plasma concentrations,[11]; after IM injection,one
same,CSF concentration as a percentage of serum concentration,"[11]; human, in vivo",20% and 15-20%
same,effect in the thirty-six binding assays,[12],no significant effect
